Assay results: ChEMBL document CHEMBL3885881, “DrugMatrix”

Organism: Rattus norvegicus
Assay: DrugMatrix - Regimen: Daily Repeat
Assay type: toxicity, organism-based, Sprague-Dawley
Parameters: regimen Daily Repeat, gender Male, age 6-8 weeks
Details: in vivo, po, route oral GAVAGE, […]; for ABSOLUTE BASOPHIL / ABSOLUTE EOSINOPHIL / ABSOLUTE LYMPHOCYTE / ABSOLUTE MONOCYTE / ABSOLUTE SEGMENTED NEUTROPHIL / BASOPHIL / EOSINOPHIL / ERYTHROCYTE COUNT / HEMATOCRIT / HEMOGLOBIN / LEUKOCYTE COUNT / LYMPHOCYTE / MEAN CORPUSCULAR HEMOGLOBIN / MEAN CORPUSCULAR HEMOGLOBIN CONCENTRATION / MEAN CORPUSCULAR VOLUME / MONOCYTE / NEUTROPHIL / NUCLEATED RED BLOOD CELLS / PLATELET COUNT: tissue Blood; for ALANINE AMINOTRANSFERASE / ALKALINE PHOSPHATASE / ASPARTATE AMINOTRANSFERASE / BLOOD UREA NITROGEN / CARBON DIOXIDE / CHLORIDE / CHOLESTEROL / CREATINE PHOSPHOKINASE / CREATININE / GLUCOSE / LACTATE DEHYDROGENASE / LIPASE / PHOSPHORUS / POTASSIUM / SODIUM / TOTAL BILIRUBIN / TOTAL PROTEIN / URIC ACID: tissue Plasma
[1] = 0 mg/kg, 72 h, dose level Control, time 3 day
[2] = 0 mg/kg, 120 h, dose level Control, time 5 day
[3] = 36 mg/kg, 72 h, dose level Low, time 3 day

Compound: c1ccc2c(c1)Nc1ccccc1S2 [PHENOTHIAZINE]
- ABSOLUTE BASOPHIL [1]: 0 CELLS/uL
- ABSOLUTE EOSINOPHIL [1]: 0 CELLS/uL
- ABSOLUTE LYMPHOCYTE [1]: 6275.67 CELLS/uL
- ABSOLUTE MONOCYTE [1]: 40.67 CELLS/uL
- ABSOLUTE SEGMENTED NEUTROPHIL [1]: 633.67 CELLS/uL
- BASOPHIL [1]: 0%
- EOSINOPHIL [1]: 0%
- ERYTHROCYTE COUNT [1]: 5.2 x10E6/uL
- HEMATOCRIT [1]: 32.78%
- HEMOGLOBIN [1]: 12.98 G/DL
- LEUKOCYTE COUNT [1]: 6.95 x10E3/uL
- LYMPHOCYTE [1]: 90.17%
- MEAN CORPUSCULAR HEMOGLOBIN [1]: 24.97 pg
- MEAN CORPUSCULAR HEMOGLOBIN CONCENTRATION [1]: 39.62 G/DL
- MEAN CORPUSCULAR VOLUME [1]: 63.03 fL
- MONOCYTE [1]: 0.67%
- NEUTROPHIL [1]: 9.17%
- NUCLEATED RED BLOOD CELLS [1]: 0 /100WBC
- PLATELET COUNT [1]: 1082.83 x10E3/uL
- ALANINE AMINOTRANSFERASE [1]: 69.67 u/L
- ALKALINE PHOSPHATASE [1]: 430.5 u/L
- ASPARTATE AMINOTRANSFERASE [1]: 90.83 u/L
- BLOOD UREA NITROGEN [1]: 13 mg/dL
- CARBON DIOXIDE [1]: 33 mmol/L
- CHLORIDE [1]: 99.17 MEQ/L
- CHOLESTEROL [1]: 70.5 mg/dL
- CREATINE PHOSPHOKINASE [1]: 253.33 u/L
- CREATININE [1]: 0.13 mg/dL
- GLUCOSE [1]: 157.17 mg/dL
- LACTATE DEHYDROGENASE [1]: 85 u/L
- LIPASE [1]: 10 u/L
- PHOSPHORUS [1]: 10.2 mg/dL
- POTASSIUM [1]: 5.78 MEQ/L
- SODIUM [1]: 144.12 MEQ/L
- TOTAL BILIRUBIN [1]: 0.2 mg/dL
- TOTAL PROTEIN [1]: 5.8 G/DL
- URIC ACID [1]: 0.8 mg/dL
- ABSOLUTE BASOPHIL [2]: 0 CELLS/uL
- ABSOLUTE EOSINOPHIL [2]: 0 CELLS/uL
- ABSOLUTE LYMPHOCYTE [2]: 10431 CELLS/uL
- ABSOLUTE MONOCYTE [2]: 90.5 CELLS/uL
- ABSOLUTE SEGMENTED NEUTROPHIL [2]: 1111.83 CELLS/uL
- BASOPHIL [2]: 0%
- EOSINOPHIL [2]: 0%
- ERYTHROCYTE COUNT [2]: 5.51 x10E6/uL
- HEMATOCRIT [2]: 34.67%
- HEMOGLOBIN [2]: 13.5 G/DL
- LEUKOCYTE COUNT [2]: 11.63 x10E3/uL
- LYMPHOCYTE [2]: 89.67%
- MEAN CORPUSCULAR HEMOGLOBIN [2]: 24.5 pg
- MEAN CORPUSCULAR HEMOGLOBIN CONCENTRATION [2]: 38.95 G/DL
- MEAN CORPUSCULAR VOLUME [2]: 62.87 fL
- MONOCYTE [2]: 0.67%
- NEUTROPHIL [2]: 9.67%
- NUCLEATED RED BLOOD CELLS [2]: 0 /100WBC
- PLATELET COUNT [2]: 1052.67 x10E3/uL
- ALANINE AMINOTRANSFERASE [2]: 54.67 u/L
- ALKALINE PHOSPHATASE [2]: 359.83 u/L
- ASPARTATE AMINOTRANSFERASE [2]: 83 u/L
- BLOOD UREA NITROGEN [2]: 13.5 mg/dL
- CARBON DIOXIDE [2]: 27.17 mmol/L
- CHLORIDE [2]: 98.5 MEQ/L
- CHOLESTEROL [2]: 66.83 mg/dL
- CREATINE PHOSPHOKINASE [2]: 256.17 u/L
- CREATININE [2]: 0.19 mg/dL
- GLUCOSE [2]: 171.33 mg/dL
- LACTATE DEHYDROGENASE [2]: 91.5 u/L
- LIPASE [2]: 10.5 u/L
- PHOSPHORUS [2]: 8.72 mg/dL
- POTASSIUM [2]: 5.34 MEQ/L
- SODIUM [2]: 142.53 MEQ/L
- TOTAL BILIRUBIN [2]: 0.2 mg/dL
- TOTAL PROTEIN [2]: 6.05 G/DL
- URIC ACID [2]: 0.6 mg/dL
- ABSOLUTE BASOPHIL [3]: 0 CELLS/uL
- ABSOLUTE EOSINOPHIL [3]: 54.67 CELLS/uL
- ABSOLUTE LYMPHOCYTE [3]: 10865.33 CELLS/uL
- ABSOLUTE MONOCYTE [3]: 53.67 CELLS/uL
- ABSOLUTE SEGMENTED NEUTROPHIL [3]: 926.33 CELLS/uL
- BASOPHIL [3]: 0%
- EOSINOPHIL [3]: 0.67%
- ERYTHROCYTE COUNT [3]: 5.23 x10E6/uL
- HEMATOCRIT [3]: 34.4%
- HEMOGLOBIN [3]: 13.4 G/DL
- LEUKOCYTE COUNT [3]: 11.9 x10E3/uL
- LYMPHOCYTE [3]: 91%
- MEAN CORPUSCULAR HEMOGLOBIN [3]: 25.6 pg
- MEAN CORPUSCULAR HEMOGLOBIN CONCENTRATION [3]: 39 G/DL
- MEAN CORPUSCULAR VOLUME [3]: 65.73 fL
- MONOCYTE [3]: 0.33%
- NEUTROPHIL [3]: 8%
- NUCLEATED RED BLOOD CELLS [3]: 0 /100WBC
- PLATELET COUNT [3]: 973 x10E3/uL
- ALANINE AMINOTRANSFERASE [3]: 62.67 u/L
- ALKALINE PHOSPHATASE [3]: 333.33 u/L
- ASPARTATE AMINOTRANSFERASE [3]: 94.33 u/L
- BLOOD UREA NITROGEN [3]: 11.67 mg/dL
- CARBON DIOXIDE [3]: 26.67 mmol/L
- CHLORIDE [3]: 98 MEQ/L
- CHOLESTEROL [3]: 63.67 mg/dL
- CREATINE PHOSPHOKINASE [3]: 272.33 u/L
- CREATININE [3]: 0.28 mg/dL
- GLUCOSE [3]: 138 mg/dL
- LACTATE DEHYDROGENASE [3]: 84 u/L
- LIPASE [3]: 10.33 u/L
- PHOSPHORUS [3]: 10.03 mg/dL
- POTASSIUM [3]: 5.46 MEQ/L
- SODIUM [3]: 142.1 MEQ/L
- TOTAL BILIRUBIN [3]: 0.17 mg/dL
- TOTAL PROTEIN [3]: 5.37 G/DL
- URIC ACID [3]: 0.57 mg/dL
